The test system of data set [1] is acetic acid-induced writhing of mice. Briefly: pharmacodynamic test on mouse pain model (acetic acid-induced writhing). Format: in vivo, Kunming mice. Particulars: Tramadol Hydrochloride 50mg/kg; 1% acetic acid intraperitoneally, writhing within 15 minutes. As for the experimental part:
• Animals: Male Kunming mice; • Drugs: Tramadol Hydrochloride Sustained Release Tablets, Glacial acetic acid, YK93-9; • Instruments: electronic balance, timer • Experiment grouping: • Normal control group; • Positive control group: Tramadol Hydrochloride group; • Protein YK93-9, (0.5g/kg) group.
Mice in the YK93-9 (0.5g/kg) group were administered by gavage, while mice in the model group were given an equal volume of CMC-Na once a day for 7 consecutive days. 30 minutes after the last administration, 1% acetic acid was administered intraperitoneally, and the writhing times of mice within 15 minutes was recorded, and the inhibition rate of drug-induced writhing reaction was calculated. The observation criteria were concave abdominal cavity, extended hind limbs, and raised buttocks.
The inhibition rate was calculated by (Mean number of writhing reactions in the normal control group - Mean number of writhing reactions in the treatment group)/Mean number of writhing reactions in the normal control group *100%.
(In writhing tests, fewer writhes than in controls are read as antinociception.)

In data set [2] the test system is mouse prostatic hyperplasia model. Briefly: pharmacodynamic test on mouse prostatic hyperplasia model (subcutaneous propionate testosterone). Particulars: 30 days; for Average weight: male Kunming mice; for prostate index: wet weight of the prostate (mg)/body weight of the mouse (g). Format: in vivo, Kunming mice. The procedure:
• Animals: Male Kunming mice, weight: 18-20 grams • Drugs: propionate testosterone injection (Ningbo Second Hormon Factory), finasteride (Merck Sharp & Dohme, MSD) • Instruments: electronic balance • Experiment grouping: Normal control group; • Model group: Androgen loading Model; • Positive control group: finasteride (1mg/kg) group; finasteride (3 mg/kg) group; • YK93-9 (0.5g/kg) group.
Preparation of experimental animals: The experimental animals were adapted to the experimental environment (temperature 22°C±2°C, relative humidity 50%±2%) for 1 day.
Subcutaneous injection of propionate testosterone to replicate mice prostatic hyperplasia model: Mice were randomly grouped 10 in each group before the model being established. Propionate testosterone (0.01mg/kg) in soybean oil was injected subcutaneously, once a day for 30 consecutive days. Mice in the normal control group were injected subcutaneously with an equal volume of sodium carboxymethyl cellulose. Immediately after the model was established, finasteride 1mg/kg, finasteride 3m g/kg, or YK93-9 0.5g/kg were orally administered. Mice were weighed on the next day. After 30 days of administration, mice were weighed, executed. The prostate was excised through a median incision in the lower abdomen, the wet weight was weighed, and the prostate index was calculated by the wet weight of the prostate (mg)/body weight of the mouse (g).
The average value, standard deviation and standard error of the prostate index in each group were calculated. The data from the groups were compared with each other by T.TEST, and P<0.05 was considered as a significant difference.

[3] abbreviates: cyclophosphamide 0.1 g/kg group, before administration.
[4] abbreviates: cyclophosphamide 0.1 g/kg intraperitoneally, single time.
[5] abbreviates: cyclophosphamide 0.1 g/kg intraperitoneally, single time, vs normal control group.
Setting [6] is: cyclophosphamide 100mg/kg, vs normal control group, P<0.05.
Where [7] appears, read: cyclophosphamide 0.1 g/kg once a week.

Where a name gives a salt, the structure may show the parent alone.

Protocol for B16F10 melanoma: Subcutaneous inoculation of B16F10 cell suspension to replicate a mouse melanoma model: Under sterile conditions, the tumor block was removed, ground into tumor fluid, the concentration was adjusted with physiological saline to 2.58 × 10^6 /ml, and 0.2 ml was taken to evenly inoculate subcutaneously on the armpit back of mice. On the next day, the animals were randomly grouped and administration began (recorded as Day 0). […] On the day of treatment, weight was measured, 20µL of blood was obtained by taking blood from the eye socket and the blood routine analysis was performed, the tumor block was peeled off, weighed and photographed, and the tumor suppression rate was calculated.
(§1) The tumor suppression rate [(The average weight of the tumor in the normal control group - the average weight of the tumor in the experimental group) / The average weight of the tumor in the normal control group × 100 %] and average value, standard deviation and standard errors of tumor weight were calculated. The data from the groups were compared with each other by T.TEST, and P<0.05 was considered as a significant difference.
Protocol for EL-4 lymphoma: Subcutaneous inoculation of EL-4 cell suspension to replicate a mouse lymphoma model: The EL-4 tumor tissue was ground into a suspension using a glass homogenizer, the tumor suspension was aspirated with a syringe, the number of live cells was calculated, the cell concentration was adjusted to 2.0*10^6/ml with physiological saline, and then the suspension was injected into the left armpit of mice with 0.2 ml/mouse. […] On the day of treatment, weight was measured, 20µl of blood was obtained from the orbital blood and the routine blood analysis was performed. The tumor blocks were stripped, weighed and photographed, and the tumor suppression rate was calculated.
as §1
Protocol for Lewis lung cancer: Subcutaneous inoculation of Lewis cell suspension to replicate mouse breast cancer model: The Lewis tumor tissue was ground into a suspension with a glass homogenizer, the tumor suspension was aspirated with a syringe, the number of live cells was calculated, the concentration of the cells was adjusted to 2.6*10^6/ml with physiological saline, and then the suspension was injected to the left armpit of the mouse with 0.2 ml/mouse. […] On the day of the treatment, the weight was measured, 20µl of blood was obtained from the orbital blood and the routine blood analysis was performed. The tumor blocks were stripped, weighed and photographed, and the tumor suppression rate was calculated.
The tumor suppression rate [(The average weight of the tumor in the normal control group - the average weight of the tumor in the experimental group) / The average weight of the tumor in the normal control group × 100 %] and the average value, standard deviation and standard errors of tumor weight were calculated . The data from the groups were compared with each other by T.TEST, and P<0.05 was considered as a significant difference.

Compound `COc1cccc(C2(O)CCCCC2CN(C)C)c1` (stereo not drawn) [Tramadol Hydrochloride] yielded a Number of writhing in data set [1] of 0.0±0.00.

Turning to `O=P1(N(CCCl)CCCl)NCCCO1` (stereo not drawn) [cyclophosphamide, Cyclophosphamide], the “Change of weight Before administration” value is 17.60 ± 0.59 g with Lewis lung cancer (setting [3]) and 18.97 ± 0.55 g in the data set with B16F10 melanoma (setting [3]). The entries for the “Change of weight After administration” value with Lewis lung cancer (setting [4]) and in the data set on B16F10 melanoma (setting [7]) were 19.95 ± 0.77 g and 19.07 ± 1.46 g, respectively. Further, the Tumor weight in the data set on Lewis lung cancer (setting [4]) came out at 0.14 ± 0.09 g; with EL-4 lymphoma (setting [4]), 0.12 ± 0.03 g; in the data set on B16F10 melanoma (setting [7]), 0.26 ± 0.11 g. For the same compound, the Tumor suppression in the data set on Lewis lung cancer (setting [5]) was found to be 95.35%; with EL-4 lymphoma (setting [5]), 95.67%; in the data set with B16F10 melanoma (cyclophosphamide 0.1 g/kg once a week, vs normal control group), 85.82%. Also, the “leukocytes (routine blood analysis)” value in the data set with EL-4 lymphoma (setting [6]) is “significantly reduced”. Besides, the “lymphocytes (routine blood analysis)” value with EL-4 lymphoma (setting [6]) is recorded as “significantly reduced”. Also, the “monocytes (routine blood analysis)” value in the data set on EL-4 lymphoma (setting [6]) is given as “significantly reduced”. Also, the “neutrophils (routine blood analysis)” value in the data set with EL-4 lymphoma (setting [6]) is listed as “significantly reduced”.

Consider `CC(C)(C)NC(=O)[C@H]1CC[C@H]2[C@@H]3CC[C@H]4NC(=O)C=C[C@]4(C)[C@H]3CC[C@]12C` [finasteride], for which, in data set [2] (finasteride 1mg/kg orally), the “wet weight of the prostate” value is 31.8 ± 4.8 mg, the Average weight was 43.5 ± 3.5 g and the prostate index is 0.75±0.12. Also, in data set [2] (finasteride 3mg/kg orally), the “wet weight of the prostate” value was determined as 29.2 ± 1.4 mg, the Average weight amounted to 40.7 ± 3.1 g and the prostate index was determined as 0.72±0.08.
